Experimental data from paper PMC11624193, “Coupling cellular drug-target engagement to downstream pharmacology with CeTEAM” (Nature Communications, 2024).
Substitutions are numbered along the chain they refer to.

What was measured:
[1] = molecular target: T1, NUDT15 (Homo sapiens, UniProt Q9NV35); experiment: […] Å co-crystal structure; also enzyme-coupled malachite green inhibition assay and DSF; format: biochemical
T1 construct: full-length wild-type
T1 sequence (Q9NV35 1-164): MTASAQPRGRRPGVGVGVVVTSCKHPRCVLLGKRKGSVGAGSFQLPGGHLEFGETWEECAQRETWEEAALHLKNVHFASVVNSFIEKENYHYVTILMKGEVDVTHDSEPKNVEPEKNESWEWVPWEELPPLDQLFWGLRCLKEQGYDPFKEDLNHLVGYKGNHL

[2] = molecular target: T2, NUDT15 (Homo sapiens, UniProt Q9NV35, R139C); experiment: DSF thermal shift of purified protein with […] compound; HA-R139C stabilization in cells; format: binding; conditions: read-out: DSF thermal shift of purified protein with 50 μM compound; HA-R139C stabilizatio
T2 construct: full-length R139C
T2 sequence (Q9NV35 1-164 R139C): T1 sequence (Q9NV35 1-164) with R139C

[3] = molecular target: T1, NUDT15; experiment: enzyme-coupled malachite green assay with dGTP as substrate; format: biochemical

Row | IC50 [1] [nM] | ΔTm at 50 µM [2] [°C] | IC50 [3] [nM] | Compound
1 | 383 | 7 | – | Nc1nc(S)c2ncn(C3CCCCC3)c2n1 [NSC56456, 2-amino-9-cyclohexyl-3H-purine-6-thione]
2 | – | – | 375 | CC(C)(c1ccccc1)n1cnc2c(=S)nc(N)[nH]c21 [TH8234, 2-amino-9-(2-phenylpropan-2-yl)-3H-purine-6(9H)-thione]
